Where two headings read alike, the source gives them in different places.
Tests used:
Sprague-Dawley rats [1] = assay: Capsaicin-induced secondary mechanical hypersensitivity; assay type: in vivo, rat
Source text: (§1) Adult male Sprague-Dawley rats (250-300 g body weight, Charles River Laboratories, Portage, Mich.) were used. Animal handling and experimental protocols were approved by the Institutional Animal Care and Use Committee (IACUC) at Abbott Laboratories. For all surgical procedures, animals were maintained under isoflurane anesthesia (4-5% to induce, 1-3% to maintain), and the incision sites were sterilized using a 10% povidone-iodine solution prior to and after surgeries.
Rats were allowed to acclimate to the study room for 1 hour. They were then briefly restrained, and capsaicin was administered at 10 μg in 10 μL of vehicle (10% ethanol and 2-hydroxypropyl cyclodextrin) by intraplantar injection into the center of the right hind paw. Secondary mechanical hyperalgesia was measured at the heel away from the site of injection at 180 minutes following the administration of capsaicin (Joshi et al 2006, Neuroscience 143, 587-596). Compounds were administered orally (p.o.) one hour before testing ([…]).
Tactile allodynia was measured using calibrated von Frey filaments (Stoelting, Wood Dale, Ill.) as described in Chaplan, S. R., F. W. Bach, J. M. Pogrel, J. M. Chung and T. L. Yaksh, Quantitative assessment of tactile allodynia in the rat paw, J. Neurosci. Methods, 1994, 53, 55. Rats were placed into inverted individual plastic containers (20×12.5×20 cm) on top of a suspended wire mesh grid, and acclimated to the test chambers for 20 minutes. The von Frey filaments with different bending forces (starting with the lowest first and then progressively increasing) were presented perpendicularly to the plantar surface of the selected hind paw, and then hold in this position for approximately 8 sec with enough force to cause a slight bend in the filament. Positive responses included an abrupt withdrawal of the hind paw from the stimulus, or flinching behavior immediately following removal of the stimulus.

[2] = molecular target: human TRPV1 receptor (hTRPV1) (Homo sapiens (Human), UniProt Q8NER1); assay: Acid activation assay (pH 5.0, FLIPR intracellular Ca2+); assay type: cell-based; settings: 37.5 μM antagonist, percentage of the maximal pH 5.0-induced response remaining, read-out: hTRPV1 H+ (max % remain)
Summary of the method: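 1321N1 astrocytoma cells stably expressing homomeric hTRPV1, loaded with Calcium-4 dye 90–120 min at 25 °C. Compounds, 12-point half-log range, added 3 min before pH 5.0 DPBS/MES challenge; intracellular Ca2+ read by FLIPR fluorescence.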

Sprague-Dawley rats [3] = assay: Sodium iodoacetate-induced knee joint osteoarthritic pain model; assay type: in vivo, rat; settings: 1 hour after dosing, % return to normalcy of hind limb grip force
Source text: as §1
Unilateral knee joint osteoarthritis was induced in the rats by a single intra-articular (i.a.) injection of sodium iodoacetate (3 mg in 0.05 mL sterile isotonic saline) into the right knee joint cavity under light isoflurane anesthesia using a 26 G needle. […] Pain behavioral assessment of hind limb grip force was conducted by recording the maximum compressive force exerted on the hind limb strain gauge setup, in a commercially available grip force measurement system (Columbus Instruments, Columbus, Ohio), to elicit paw withdrawal. The grip force data was converted to a maximum hindlimb cumulative compressive force (CFmax) (gram force)/kg body weight for each animal. The analgesic effects of test compounds were determined 20 days following the i.a. injection of sodium iodoacetate. The vehicle control group for each compound being tested was assigned 0% whereas the age matched naïve group was assigned as being 100% (normal). The % effect for each dose group was then expressed as % return to normalcy compared to the naïve group. Test compounds were administered orally in 10% ethanol/20% Tween 80/70% polyethylene glycol-400 vehicle at a volume of 2 mL/kg. The assessment of the analgesic effects of test compounds was made 1 hour following oral administration. The assessment of the analgesic effects of test compounds can be made following a single dose or following repeated administration wherein the frequency of dosing is 1 to 2 times daily. The duration of such repeated daily dosing may last for any time greater than one day. A typical duration of repeated daily dosing is about 5 days to about 12 days.

Chain of human TRPV1 receptor (hTRPV1) (Q8NER1 whole entry): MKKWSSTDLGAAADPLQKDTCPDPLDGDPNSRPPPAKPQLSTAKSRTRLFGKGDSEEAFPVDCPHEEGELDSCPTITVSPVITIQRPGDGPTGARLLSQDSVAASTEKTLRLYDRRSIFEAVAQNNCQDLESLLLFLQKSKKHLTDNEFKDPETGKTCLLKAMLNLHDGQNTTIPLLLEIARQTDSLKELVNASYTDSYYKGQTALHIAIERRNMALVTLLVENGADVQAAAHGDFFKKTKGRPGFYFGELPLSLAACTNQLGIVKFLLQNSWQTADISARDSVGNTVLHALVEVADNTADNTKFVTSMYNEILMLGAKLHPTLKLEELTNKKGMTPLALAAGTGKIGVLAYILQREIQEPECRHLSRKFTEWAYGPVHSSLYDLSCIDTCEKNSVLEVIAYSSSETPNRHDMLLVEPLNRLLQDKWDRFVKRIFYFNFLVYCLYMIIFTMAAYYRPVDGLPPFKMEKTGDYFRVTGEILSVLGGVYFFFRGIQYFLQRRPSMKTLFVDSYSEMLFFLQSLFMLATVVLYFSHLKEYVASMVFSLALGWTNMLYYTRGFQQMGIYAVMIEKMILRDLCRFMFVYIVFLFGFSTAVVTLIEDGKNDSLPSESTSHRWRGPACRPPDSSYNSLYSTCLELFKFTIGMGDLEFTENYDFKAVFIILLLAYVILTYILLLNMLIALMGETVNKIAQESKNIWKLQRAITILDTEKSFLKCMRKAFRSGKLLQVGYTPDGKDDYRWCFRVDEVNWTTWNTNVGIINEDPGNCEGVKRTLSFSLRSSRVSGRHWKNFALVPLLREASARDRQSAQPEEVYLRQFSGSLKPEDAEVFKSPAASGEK

O=C(Nc1cccc2[nH]ncc12)N[C@H]1CC[C@@H](c2ccccc2)C1 [Example 28, 1-(1H-indazol-4-yl)-3-[(1S,3R)-3-phenylcyclopentyl]urea] was tested, and the “% effect” value (Sprague-Dawley rats [1]; 100 μmol/kg p.o.) was 81%, the remaining activity at 37.5 µM ([2]; Table 1) was 41% and the remaining activity at 37.5 µM ([2]; Table 2) was 41%. The “% effect” value (Sprague-Dawley rats [3]; 100 μmol/kg p.o.) was 78%.
With Cn1ncc2c(NC(=O)N[C@@H]3CC[C@H](c4ccccc4)C3)cccc21 [Example 4, 1-(1-methyl-1H-indazol-4-yl)-3-[(1R,3S)-3-phenylcyclopentyl]urea] the remaining activity at 37.5 µM ([2]; Table 1) was 37%, the remaining activity at 37.5 µM ([2]; Table 2) was 21% and the “% effect” value (Sprague-Dawley rats [3]; 10 mg/kg p.o.) was 50%.
O=C(Nc1cccc2[nH]ncc12)N[C@@H]1CC[C@@H](c2ccccc2)C1 [Example 21, 1-(1H-indazol-4-yl)-3-[(1R,3R)-3-phenylcyclopentyl]urea] was tested, and the remaining activity at 37.5 µM ([2]; Table 1) was 8%, the remaining activity at 37.5 µM ([2]; Table 2) was 8% and the “% effect” value (Sprague-Dawley rats [3]; 10 mg/kg p.o.) was 37%.
In the case of Cc1cc2c(NC(=O)N[C@@H]3CC[C@H](c4ccccc4)C3)c(F)ccc2cn1 [Example 6, 1-(6-fluoro-3-methylisoquinolin-5-yl)-3-[(1R,3S)-3-phenylcyclopentyl]urea], the “% effect” value (Sprague-Dawley rats [1]; 10 μmol/kg p.o.) is reported as 59%, the remaining activity at 37.5 µM ([2]; Table 1) is reported as 62% and the remaining activity at 37.5 µM ([2]; Table 2) is reported as 62%.
For O=C(Nc1cccc2[nH]ncc12)N[C@H]1CC[C@H](c2ccccc2)C1 [Example 14, 1-(1H-indazol-4-yl)-3-[(1S,3S)-3-phenylcyclopentyl]urea], the “% effect” value (Sprague-Dawley rats [1]; 100 μmol/kg p.o.) was 48%, the remaining activity at 37.5 µM ([2]; Table 1) was 36% and the remaining activity at 37.5 µM ([2]; Table 2) was 36%.

Reference: patent US8802711B2, “TRPV1 antagonists” (AbbVie Inc., priority 2011, dated 2014)
